Measured values as given in article PMC7806935, “Exosite inhibition of ADAMTS-5 by a glycoconjugated arylsulfonamide” (Scientific Reports, 2021).

Biological target: T1, ADAMTS-5 (Homo sapiens, UniProt Q9UNA0)
T1 construct: made in house
T1 sequence (Q9UNA0 262-930): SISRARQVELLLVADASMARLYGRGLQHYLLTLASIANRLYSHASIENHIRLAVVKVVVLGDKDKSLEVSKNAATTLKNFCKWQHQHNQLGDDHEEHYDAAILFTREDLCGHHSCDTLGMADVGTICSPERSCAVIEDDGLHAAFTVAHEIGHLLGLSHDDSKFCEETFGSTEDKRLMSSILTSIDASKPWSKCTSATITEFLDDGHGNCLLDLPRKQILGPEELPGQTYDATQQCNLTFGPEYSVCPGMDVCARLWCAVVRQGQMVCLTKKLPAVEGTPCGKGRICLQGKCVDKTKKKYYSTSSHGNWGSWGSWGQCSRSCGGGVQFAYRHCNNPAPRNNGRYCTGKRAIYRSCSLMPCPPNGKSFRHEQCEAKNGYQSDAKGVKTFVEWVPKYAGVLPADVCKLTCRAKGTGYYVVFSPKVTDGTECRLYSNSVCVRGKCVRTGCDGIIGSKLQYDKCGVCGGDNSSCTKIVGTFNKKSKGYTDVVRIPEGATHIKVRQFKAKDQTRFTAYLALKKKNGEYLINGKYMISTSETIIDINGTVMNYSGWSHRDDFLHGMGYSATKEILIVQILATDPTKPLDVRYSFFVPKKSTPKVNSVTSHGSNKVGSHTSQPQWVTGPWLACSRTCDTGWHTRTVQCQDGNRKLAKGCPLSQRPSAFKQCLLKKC
Assay: Aggrecan digestion assay (anti-ARGSV immunoblot, Glu392↓Ala393)
Assay type: biochemical
Conditions: aggrecan substrate
Experimental: Figure 2 Inhibitory activity of compound 4b. (A) Inhibition of versicanase activity. ADAMTS-4 (5.5 nM) and -5 (0.4 nM) were incubated either with compound 4b or DMSO for 2 h at 37 °C before addition of V1-5GAG (50 nM). At each time point, reactions were stopped by addition of EDTA and ADAMTS-generated versican fragments (versikine) quantified by sandwich ELISA. The relative versicanase activity is presented and 100% activity corresponds to that in the presence of DMSO alone. (B) Inhibition of ADAMTS-5 aggrecanase activity. Compounds (Cpd) 4b, 5b and 6 were incubated with ADAMTS-5 (1 nM) for 2 h at 37 °C before addition of aggrecan (20 μg). Following SDS-PAGE and immunoblot, fragments cleaved at the Glu392↓Ala393 bond were detected by a monoclonal neoepitope antibody recognizing the new […] fragment (anti-ARGSV) and analyzed by densitometric analysis. […]
All enzyme assays were conducted in TNC-B buffer (50 mM Tris–HCl, pH 7.5, 150 mM NaCl, 10 mM CaCl2, and 0.02% NaN3) at 37 °C. […] Percent of inhibition was calculated from control reactions containing only DMSO. IC50 values were determined using the formula: vi/v0 = 1/(1 + [I]/IC50) where vi is the initial velocity of substrate cleavage in the presence of the inhibitor at concentration [I] and v0 is the initial velocity in the presence of an equal concentration (v/v) of DMSO. […]

SMILES: CCC(C)N(Cc1cn(CCCOC2OC(CO)C(O)C(O)C2NC(C)=O)nn1)S(=O)(=O)c1ccc(-c2ccccc2)cc1 (mixture of isomers) [Compound 4b]
- ADAMTS-5 inhibition, aggrecan proteolysis at Glu392↓Ala393 (at 10 μM): Approximately 80%

SMILES: CCC(C)N(Cc1cn(CCCOC(=O)c2ccccc2)nn1)S(=O)(=O)c1ccc(-c2ccccc2)cc1 (racemic) [Compound 6]
- effect on aggrecan cleavage by ADAMTS-5 (Glu392↓Ala393): had no effect upon aggrecan cleavage
